According to ChEMBL document CHEMBL3885861, “Open TG-GATES”:

Organism: Rattus norvegicus
Assay: Open TG-GATES - Regimen: Single
Type: toxicity, organism-based, Sprague-Dawley
Design: regimen Single, gender Male, age 6 weeks
Details: in vivo, po, 0 mg/kg, route gavage, dose level Control; for APTT / Bas / Eos / Fbg / Hb / Ht / Lym / MCH / MCHC / MCV / Mono / Neu / PT / Plat / RBC / Ret / WBC: tissue Blood; for KIDNEY_L / KIDNEY_R / KIDNEY_TOTAL: tissue Kidney; for LIVER: tissue Liver; for A/G / ALP / ALT / AST / BUN / CRE / Ca / Cl / DBIL / GLC / IP / K / LDH / Na / PL / RALB / TBIL / TC / TG / TP / gamma-GTP: tissue Plasma

Compound `Cc1cccc(Nc2ccccc2C(=O)O)c1C` [MEFENAMIC ACID] has a TERMINAL_BW (3 h) of 216.3 g, an APTT (3 h) of 18.2 s and a Bas (3 h) of 0%. It also gave an Eos (3 h) of 1%, a Fbg (3 h) of 217.8 mg/dL and a Hb (3 h) of 13.2 g/dL. For the same compound, the Ht (3 h) was 37.1%, the Lym (3 h) was 77.8% and the MCH (3 h) was 21.9 pg. It also gave an MCHC (3 h) of 35.5%, an MCV (3 h) of 61.9 fL and a Mono (3 h) of 2.4%. The Neu (3 h) was 16.4%, the PT (3 h) was 12.4 s and the Plat (3 h) was 117.6 x10_4/uL. The RBC (3 h) was 600.2 x10_4/ul, the Ret (3 h) was 7.4% and the WBC (3 h) was 74.9 x10_2/uL. For the same compound, the KIDNEY_L (3 h) was 1 g, the KIDNEY_R (3 h) was 1 g and the KIDNEY_TOTAL (3 h) was 1.9 g. It also gave an LIVER (3 h) of 9.7 g, an A/G (3 h) of 1.7 and an ALP (3 h) of 1061 IU/L. The ALT (3 h) was 35 IU/L, the AST (3 h) was 67 IU/L and the BUN (3 h) was 10.8 mg/dL. It also gave a CRE (3 h) of 0.4 mg/dL, a Ca (3 h) of 10.9 mg/dL and a Cl (3 h) of 103 meq/L. It also gave a DBIL (3 h) of 0.078 mg/dL, a GLC (3 h) of 190.4 mg/dL and an IP (3 h) of 9 mg/dL. It also gave a K (3 h) of 4.1 meq/L, an LDH (3 h) of 213 IU/L and a Na (3 h) of 140.8 meq/L. It also gave a PL (3 h) of 145.8 mg/dL, an RALB (3 h) of 3.5 g/dL and a TBIL (3 h) of 0.1 mg/dL. It also gave a TC (3 h) of 80 mg/dL, a TG (3 h) of 49 mg/dL and a TP (3 h) of 5.6 g/dL. For the same compound, the gamma-GTP (3 h) was 1.2 IU/L, the TERMINAL_BW (6 h) was 214.5 g and the APTT (6 h) was 18.6 s. It also gave a Bas (6 h) of 0%, an Eos (6 h) of 1% and a Fbg (6 h) of 219.4 mg/dL. It also gave a Hb (6 h) of 13.2 g/dL, a Ht (6 h) of 37.2% and a Lym (6 h) of 80.6%. For the same compound, the MCH (6 h) was 22 pg, the MCHC (6 h) was 35.5% and the MCV (6 h) was 61.9 fL. For the same compound, the Mono (6 h) was 2.4%, the Neu (6 h) was 15% and the PT (6 h) was 13 s. The Plat (6 h) was 107.7 x10_4/uL, the RBC (6 h) was 601.8 x10_4/ul and the Ret (6 h) was 7.8%. The WBC (6 h) was 87.4 x10_2/uL, the KIDNEY_L (6 h) was 1 g and the KIDNEY_R (6 h) was 1 g. It also gave a KIDNEY_TOTAL (6 h) of 2 g, an LIVER (6 h) of 8.8 g and an A/G (6 h) of 1.6. The ALP (6 h) was 898.6 IU/L, the ALT (6 h) was 36.8 IU/L and the AST (6 h) was 65.4 IU/L. For the same compound, the BUN (6 h) was 8.6 mg/dL, the CRE (6 h) was 0.3 mg/dL and the Ca (6 h) was 10.3 mg/dL. For the same compound, the Cl (6 h) was 102.8 meq/L, the DBIL (6 h) was 0.062 mg/dL and the GLC (6 h) was 183.4 mg/dL. For the same compound, the IP (6 h) was 8.9 mg/dL, the K (6 h) was 4.2 meq/L and the LDH (6 h) was 172 IU/L. For the same compound, the Na (6 h) was 139.6 meq/L, the PL (6 h) was 134.6 mg/dL and the RALB (6 h) was 3.3 g/dL. For the same compound, the TBIL (6 h) was 0.1 mg/dL, the TC (6 h) was 79.4 mg/dL and the TG (6 h) was 39.8 mg/dL. The TP (6 h) was 5.4 g/dL, the gamma-GTP (6 h) was 1 IU/L and the TERMINAL_BW (9 h) was 214.7 g. It also gave an APTT (9 h) of 18.8 s, a Bas (9 h) of 0% and an Eos (9 h) of 1%. The Fbg (9 h) was 228.8 mg/dL, the Hb (9 h) was 13.6 g/dL and the Ht (9 h) was 38.3%. For the same compound, the Lym (9 h) was 78.6%, the MCH (9 h) was 22.2 pg and the MCHC (9 h) was 35.6%. The MCV (9 h) was 62.6 fL, the Mono (9 h) was 2.2% and the Neu (9 h) was 17.2%. The PT (9 h) was 12.8 s, the Plat (9 h) was 106.8 x10_4/uL and the RBC (9 h) was 613 x10_4/ul. It also gave a Ret (9 h) of 7.1%, a WBC (9 h) of 75.3 x10_2/uL and a KIDNEY_L (9 h) of 1 g. The KIDNEY_R (9 h) was 1 g, the KIDNEY_TOTAL (9 h) was 2 g and the LIVER (9 h) was 8.7 g. It also gave an A/G (9 h) of 1.7, an ALP (9 h) of 891.2 IU/L and an ALT (9 h) of 32.6 IU/L. For the same compound, the AST (9 h) was 64.2 IU/L, the BUN (9 h) was 10.6 mg/dL and the CRE (9 h) was 0.3 mg/dL. For the same compound, the Ca (9 h) was 10.4 mg/dL, the Cl (9 h) was 102.8 meq/L and the DBIL (9 h) was 0.074 mg/dL. The GLC (9 h) was 202.6 mg/dL, the IP (9 h) was 8.9 mg/dL and the K (9 h) was 3.8 meq/L. It also gave an LDH (9 h) of 187.4 IU/L, a Na (9 h) of 141 meq/L and a PL (9 h) of 136.4 mg/dL. The RALB (9 h) was 3.5 g/dL, the TBIL (9 h) was 0.1 mg/dL and the TC (9 h) was 75.2 mg/dL. The TG (9 h) was 55.4 mg/dL, the TP (9 h) was 5.6 g/dL and the gamma-GTP (9 h) was 1 IU/L. The TERMINAL_BW (24 h) was 229.4 g, the APTT (24 h) was 18 s and the Bas (24 h) was 0%. For the same compound, the Eos (24 h) was 1%, the Fbg (24 h) was 214.8 mg/dL and the Hb (24 h) was 13.4 g/dL. The Ht (24 h) was 38.5%, the Lym (24 h) was 79.2% and the MCH (24 h) was 22.4 pg. It also gave an MCHC (24 h) of 34.8%, an MCV (24 h) of 64.2 fL and a Mono (24 h) of 2%. For the same compound, the Neu (24 h) was 16.4%, the PT (24 h) was 12 s and the Plat (24 h) was 116.5 x10_4/uL. For the same compound, the RBC (24 h) was 599.6 x10_4/ul, the Ret (24 h) was 6.7% and the WBC (24 h) was 80 x10_2/uL. For the same compound, the KIDNEY_L (24 h) was 1 g, the KIDNEY_R (24 h) was 1 g and the KIDNEY_TOTAL (24 h) was 2.1 g. The LIVER (24 h) was 11.1 g, the A/G (24 h) was 1.5 and the ALP (24 h) was 943.6 IU/L. The ALT (24 h) was 39 IU/L, the AST (24 h) was 66 IU/L and the BUN (24 h) was 13.6 mg/dL. The CRE (24 h) was 0.4 mg/dL, the Ca (24 h) was 10.9 mg/dL and the Cl (24 h) was 102.8 meq/L. It also gave a DBIL (24 h) of 0.1 mg/dL, a GLC (24 h) of 193.2 mg/dL and an IP (24 h) of 7.9 mg/dL. It also gave a K (24 h) of 4.1 meq/L, an LDH (24 h) of 223.6 IU/L and a Na (24 h) of 140.2 meq/L. The PL (24 h) was 147.8 mg/dL, the RALB (24 h) was 3.4 g/dL and the TBIL (24 h) was 0.2 mg/dL. For the same compound, the TC (24 h) was 74.6 mg/dL, the TG (24 h) was 120.4 mg/dL and the TP (24 h) was 5.7 g/dL. For the same compound, the gamma-GTP (24 h) was 1.4 IU/L.
